# Reference: ChEMBL document CHEMBL3745631, “Discovery of highly potent and selective Bruton's tyrosine kinase inhibitors: Pyridazinone analogs with improved metabolic stability” (Bioorg Med Chem Lett, 2016)
# Experiments:
# Blood = test: Inhibition of IgE-stimulated CD63 expression in human whole blood
# Monocyte = test: Inhibition of IC-induced IL-1beta release in human monocytes
# Mus musculus = test: Clearance in mouse at 1 mg/kg, iv by LC-MS/MS analysis; assay type: ADME, organism-based; settings: in vivo
# Canis familiaris = test: Clearance in dog at 1 mg/kg, iv by LC-MS/MS analysis; assay type: ADME, organism-based, Canis lupus familiaris; settings: in vivo
# [1] = target: Maternal embryonic leucine zipper kinase (Homo sapiens, UniProt Q14680); test: Inhibition of MELK (unknown origin) at 1 uM
# [2] = target: Tyrosine-protein kinase Lck (Homo sapiens) (UniProt P06239); test: Inhibition of LCK (unknown origin) at 1 uM
# [3] = target: Tyrosine-protein kinase ITK/TSK (Homo sapiens) (UniProt Q08881); test: Inhibition of ITK (unknown origin) at 1 uM
# [4] = target: Serine/threonine-protein kinase PLK1 (Homo sapiens) (UniProt P53350); test: Inhibition of PLK1 (unknown origin) at 1 uM
# [5] = target: Calcium/calmodulin-dependent protein kinase type 1D (Homo sapiens) (UniProt Q8IU85); test: Inhibition of CaMK1 delta (unknown origin) at 1 uM
# [6] = target: Serine/threonine-protein kinase PLK2 (Homo sapiens) (UniProt Q9NYY3); test: Inhibition of PLK2 (unknown origin) at 1 uM
# [7] = tested on: RAF proto-oncogene serine/threonine-protein kinase (Homo sapiens), P04049 [Y340D,Y341D]; test: Inhibition of RAF1 Y340D, Y341D mutant (unknown origin) at 1 uM
# [8] = target: Mitogen-activated protein kinase 9 (Homo sapiens) (UniProt P45984); test: Inhibition of JNK2 (unknown origin) at 1 uM
# [9] = target: Serine/threonine-protein kinase Nek1 (Homo sapiens) (UniProt Q96PY6); test: Inhibition of NEK1 (unknown origin) at 1 uM
# [10] = target: MAP kinase-interacting serine/threonine-protein kinase 1 (Homo sapiens) (UniProt Q9BUB5); test: Inhibition of MKNK1 (unknown origin) at 1 uM
# [11] = target: Fibroblast growth factor receptor 1 (Homo sapiens) (UniProt P11362); test: Inhibition of FGFR1 (unknown origin) at 1 uM
# [12] = target: Fibroblast growth factor receptor 4 (Homo sapiens) (UniProt P22455); test: Inhibition of FGFR4 (unknown origin) at 1 uM
# [13] = target: Myotonin-protein kinase (Homo sapiens) (UniProt Q09013); test: Inhibition of DMPK (unknown origin) at 1 uM
# [14] = target: Receptor tyrosine-protein kinase erbB-4 (Homo sapiens) (UniProt Q15303); test: Inhibition of ErbB4 (unknown origin) at 1 uM
# [15] = target: Vascular endothelial growth factor receptor 3 (Homo sapiens) (UniProt P35916); test: Inhibition of Flt4 (unknown origin) at 1 uM
# [16] = target: Cyclin-dependent kinase 5/CDK5 activator 1 (Homo sapiens) (UniProt Q00535+Q15078); test: Inhibition of CDK5/p25 (unknown origin) at 1 uM; assay type: protein-complex assay
# [17] = target: MAP kinase-interacting serine/threonine-protein kinase 2 (Homo sapiens) (UniProt Q9HBH9); test: Inhibition of MKNK2 (unknown origin) at 1 uM
# [18] = target: Tyrosine-protein kinase FRK (Homo sapiens) (UniProt P42685); test: Inhibition of Frk (unknown origin) at 1 uM
# [19] = target: Dual specificity mitogen-activated protein kinase kinase 3 (Homo sapiens) (UniProt P46734); test: Inhibition of MEK3 (unknown origin) at 1 uM
# [20] = target: Protein kinase C alpha type (Homo sapiens) (UniProt P17252); test: Inhibition of PKC alpha (unknown origin) at 1 uM
# [21] = target: 5'-AMP-activated protein kinase catalytic subunit alpha-1 (Homo sapiens) (UniProt Q13131); test: Inhibition of PRKAA1 (unknown origin) at 1 uM
# [22] = target: Proto-oncogene tyrosine-protein kinase receptor Ret (Homo sapiens) (UniProt P07949); test: Inhibition of Ret (unknown origin) at 1 uM
# [23] = target: Insulin receptor (Homo sapiens) (UniProt P06213); test: Inhibition of InsR (unknown origin) at 1 uM
# [24] = target: Macrophage colony-stimulating factor 1 receptor (Homo sapiens) (UniProt P07333); test: Inhibition of CSF1R (unknown origin) at 1 uM
# [25] = target: Mitogen-activated protein kinase 11 (Homo sapiens) (UniProt Q15759); test: Inhibition of p38 beta (unknown origin) at 1 uM
# [26] = target: Mitogen-activated protein kinase 13 (Homo sapiens) (UniProt O15264); test: Inhibition of p38 delta (unknown origin) at 1 uM
# [27] = target: Ephrin type-A receptor 2 (Homo sapiens) (UniProt P29317); test: Inhibition of EphA2 (unknown origin) at 1 uM
# [28] = target: Angiopoietin-1 receptor (Homo sapiens) (UniProt Q02763); test: Inhibition of Tie2 (unknown origin) at 1 uM
# [29] = target: Dual specificity protein kinase TTK (Homo sapiens) (UniProt P33981); test: Inhibition of TTK (unknown origin) at 1 uM
# [30] = target: Tyrosine-protein kinase Fyn (Homo sapiens) (UniProt P06241); test: Inhibition of Fyn (unknown origin) at 1 uM
# [31] = target: Mitogen-activated protein kinase 1 (Homo sapiens) (UniProt P28482); test: Inhibition of ERK2 (unknown origin) at 1 uM
# [32] = target: Dual specificity tyrosine-phosphorylation-regulated kinase 1A (Homo sapiens) (UniProt Q13627); test: Inhibition of DYRK1A (unknown origin) at 1 uM
# [33] = target: Serine/threonine-protein kinase Sgk1 (Homo sapiens) (UniProt O00141); test: Inhibition of SGK1 (unknown origin) at 1 uM
# [34] = target: Non-receptor tyrosine-protein kinase TYK2 (Homo sapiens) (UniProt P29597); test: Inhibition of TYK2 (unknown origin) at 1 uM
# [35] = target: G protein-coupled receptor kinase 5 (Homo sapiens) (UniProt P34947); test: Inhibition of GRK5 (unknown origin) at 1 uM
# [36] = target: Serine/threonine-protein kinase 3 (Homo sapiens) (UniProt Q13188); test: Inhibition of MST2 (unknown origin) at 1 uM
# [37] = target: Serine/threonine-protein kinase NLK (Homo sapiens) (UniProt Q9UBE8); test: Inhibition of NLK (unknown origin) at 1 uM
# [38] = target: MAP/microtubule affinity-regulating kinase 3 (Homo sapiens) (UniProt P27448); test: Inhibition of MARK3 (unknown origin) at 1 uM
# [39] = target: Ribosomal protein S6 kinase alpha-5 (Homo sapiens) (UniProt O75582); test: Inhibition of MSK1 (unknown origin) at 1 uM
# [40] = target: Focal adhesion kinase 1 (Homo sapiens) (UniProt Q05397); test: Inhibition of FAK (unknown origin) at 1 uM
# [41] = target: SRSF protein kinase 3 (Homo sapiens) (UniProt Q9UPE1); test: Inhibition of MSSK1 (unknown origin) at 1 uM
# Sequence of 5'-AMP-activated protein kinase catalytic subunit alpha-1 (Homo sapiens) (Q13131 whole entry, looked up): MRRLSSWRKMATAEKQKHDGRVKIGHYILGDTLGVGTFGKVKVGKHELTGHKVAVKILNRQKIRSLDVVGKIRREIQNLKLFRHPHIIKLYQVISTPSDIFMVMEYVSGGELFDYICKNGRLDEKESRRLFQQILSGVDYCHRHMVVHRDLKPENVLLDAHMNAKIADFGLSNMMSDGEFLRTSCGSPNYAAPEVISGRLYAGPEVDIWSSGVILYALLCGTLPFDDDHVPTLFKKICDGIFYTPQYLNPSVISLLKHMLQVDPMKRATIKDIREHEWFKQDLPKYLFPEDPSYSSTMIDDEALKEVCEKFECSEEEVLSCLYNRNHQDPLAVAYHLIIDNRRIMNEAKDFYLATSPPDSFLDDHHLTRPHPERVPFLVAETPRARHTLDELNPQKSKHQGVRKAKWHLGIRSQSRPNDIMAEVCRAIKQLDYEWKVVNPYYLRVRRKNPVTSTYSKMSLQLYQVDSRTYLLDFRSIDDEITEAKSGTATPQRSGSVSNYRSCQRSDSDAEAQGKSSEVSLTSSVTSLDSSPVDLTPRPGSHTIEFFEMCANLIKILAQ
# Sequence of Calcium/calmodulin-dependent protein kinase type 1D (Homo sapiens) (Q8IU85 whole entry, looked up): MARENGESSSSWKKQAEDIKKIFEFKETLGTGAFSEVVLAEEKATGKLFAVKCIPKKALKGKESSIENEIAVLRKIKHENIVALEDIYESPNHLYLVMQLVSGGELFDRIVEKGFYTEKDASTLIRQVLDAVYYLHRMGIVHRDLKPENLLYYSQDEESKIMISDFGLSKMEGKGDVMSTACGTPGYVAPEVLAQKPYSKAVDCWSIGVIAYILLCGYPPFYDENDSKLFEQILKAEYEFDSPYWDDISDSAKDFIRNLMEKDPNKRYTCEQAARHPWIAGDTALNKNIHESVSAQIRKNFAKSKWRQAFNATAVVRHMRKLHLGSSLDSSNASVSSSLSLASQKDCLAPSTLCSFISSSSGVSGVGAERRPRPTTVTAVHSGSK
# Sequence of Serine/threonine-protein kinase PLK1 (Homo sapiens) (P53350 whole entry): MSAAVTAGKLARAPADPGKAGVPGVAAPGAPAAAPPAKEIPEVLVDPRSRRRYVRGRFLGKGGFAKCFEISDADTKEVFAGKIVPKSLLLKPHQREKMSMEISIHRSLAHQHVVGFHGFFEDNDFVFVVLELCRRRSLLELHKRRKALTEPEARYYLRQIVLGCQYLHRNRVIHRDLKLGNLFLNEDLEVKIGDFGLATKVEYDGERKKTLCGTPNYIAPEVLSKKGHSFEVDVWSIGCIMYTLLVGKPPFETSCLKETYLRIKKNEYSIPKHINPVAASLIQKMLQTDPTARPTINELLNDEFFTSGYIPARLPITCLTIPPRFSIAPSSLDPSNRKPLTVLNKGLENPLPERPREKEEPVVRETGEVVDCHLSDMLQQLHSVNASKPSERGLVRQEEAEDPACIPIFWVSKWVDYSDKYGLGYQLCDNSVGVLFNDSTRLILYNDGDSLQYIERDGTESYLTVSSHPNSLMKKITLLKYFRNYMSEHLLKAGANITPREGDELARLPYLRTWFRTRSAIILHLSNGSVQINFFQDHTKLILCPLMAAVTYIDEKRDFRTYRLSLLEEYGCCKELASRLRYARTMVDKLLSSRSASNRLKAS
# Sequence of Ephrin type-A receptor 2 (Homo sapiens) (P29317 whole entry): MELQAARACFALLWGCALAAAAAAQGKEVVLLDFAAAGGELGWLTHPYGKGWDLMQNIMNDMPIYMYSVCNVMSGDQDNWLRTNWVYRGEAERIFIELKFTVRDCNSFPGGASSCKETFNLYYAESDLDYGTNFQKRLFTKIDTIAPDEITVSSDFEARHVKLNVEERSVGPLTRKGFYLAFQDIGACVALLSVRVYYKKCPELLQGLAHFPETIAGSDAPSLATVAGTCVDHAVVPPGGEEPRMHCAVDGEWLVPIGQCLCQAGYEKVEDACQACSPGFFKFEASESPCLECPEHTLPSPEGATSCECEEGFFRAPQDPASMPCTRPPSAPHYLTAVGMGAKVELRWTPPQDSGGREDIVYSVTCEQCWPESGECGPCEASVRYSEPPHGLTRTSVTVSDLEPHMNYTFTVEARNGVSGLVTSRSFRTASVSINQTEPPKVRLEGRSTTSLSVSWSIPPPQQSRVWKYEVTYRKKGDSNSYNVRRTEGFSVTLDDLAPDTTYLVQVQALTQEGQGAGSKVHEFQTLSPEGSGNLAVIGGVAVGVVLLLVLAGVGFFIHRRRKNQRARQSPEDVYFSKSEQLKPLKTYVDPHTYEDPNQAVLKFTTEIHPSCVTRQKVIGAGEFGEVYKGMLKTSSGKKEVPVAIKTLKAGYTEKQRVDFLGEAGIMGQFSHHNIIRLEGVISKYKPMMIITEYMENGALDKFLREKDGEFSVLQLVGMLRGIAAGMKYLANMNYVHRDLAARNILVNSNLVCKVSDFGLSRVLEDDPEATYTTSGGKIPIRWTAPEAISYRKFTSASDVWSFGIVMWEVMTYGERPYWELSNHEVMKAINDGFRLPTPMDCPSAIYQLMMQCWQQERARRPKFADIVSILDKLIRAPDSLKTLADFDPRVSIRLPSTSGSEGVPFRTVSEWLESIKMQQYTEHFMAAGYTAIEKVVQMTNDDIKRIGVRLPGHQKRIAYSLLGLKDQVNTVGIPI
# Sequence of Serine/threonine-protein kinase Nek1 (Homo sapiens) (Q96PY6 whole entry): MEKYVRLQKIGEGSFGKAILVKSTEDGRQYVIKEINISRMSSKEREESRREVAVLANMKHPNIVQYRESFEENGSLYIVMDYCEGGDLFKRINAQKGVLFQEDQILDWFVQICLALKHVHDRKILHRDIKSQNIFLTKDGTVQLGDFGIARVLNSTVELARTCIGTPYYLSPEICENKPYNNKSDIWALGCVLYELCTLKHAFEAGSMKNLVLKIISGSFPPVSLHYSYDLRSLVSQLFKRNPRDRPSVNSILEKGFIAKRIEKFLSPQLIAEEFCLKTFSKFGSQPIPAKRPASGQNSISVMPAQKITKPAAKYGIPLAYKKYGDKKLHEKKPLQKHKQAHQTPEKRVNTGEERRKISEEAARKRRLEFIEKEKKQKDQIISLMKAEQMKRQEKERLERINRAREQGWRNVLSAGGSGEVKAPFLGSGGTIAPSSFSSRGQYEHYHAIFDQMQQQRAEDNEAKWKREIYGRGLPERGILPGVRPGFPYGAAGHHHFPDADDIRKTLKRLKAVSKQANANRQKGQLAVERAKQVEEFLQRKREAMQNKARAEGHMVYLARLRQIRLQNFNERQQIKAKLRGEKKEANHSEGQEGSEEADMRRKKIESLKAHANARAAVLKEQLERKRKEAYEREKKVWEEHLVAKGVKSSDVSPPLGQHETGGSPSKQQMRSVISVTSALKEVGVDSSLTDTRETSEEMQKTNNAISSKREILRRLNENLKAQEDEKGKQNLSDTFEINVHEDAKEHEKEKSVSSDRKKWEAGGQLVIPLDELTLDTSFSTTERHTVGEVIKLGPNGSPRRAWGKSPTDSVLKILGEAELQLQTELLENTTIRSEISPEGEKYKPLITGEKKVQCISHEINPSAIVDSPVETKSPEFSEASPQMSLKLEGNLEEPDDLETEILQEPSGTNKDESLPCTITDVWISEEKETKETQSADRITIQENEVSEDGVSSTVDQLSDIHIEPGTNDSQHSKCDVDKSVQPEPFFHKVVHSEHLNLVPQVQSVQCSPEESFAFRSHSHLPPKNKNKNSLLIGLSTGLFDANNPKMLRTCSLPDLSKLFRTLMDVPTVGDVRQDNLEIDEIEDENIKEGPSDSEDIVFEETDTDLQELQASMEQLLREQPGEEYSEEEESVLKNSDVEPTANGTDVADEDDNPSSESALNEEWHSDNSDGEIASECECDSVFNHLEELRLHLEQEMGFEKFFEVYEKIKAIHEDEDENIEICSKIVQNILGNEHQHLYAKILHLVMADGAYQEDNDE
# Sequence of Dual specificity mitogen-activated protein kinase kinase 3 (Homo sapiens) (P46734 whole entry): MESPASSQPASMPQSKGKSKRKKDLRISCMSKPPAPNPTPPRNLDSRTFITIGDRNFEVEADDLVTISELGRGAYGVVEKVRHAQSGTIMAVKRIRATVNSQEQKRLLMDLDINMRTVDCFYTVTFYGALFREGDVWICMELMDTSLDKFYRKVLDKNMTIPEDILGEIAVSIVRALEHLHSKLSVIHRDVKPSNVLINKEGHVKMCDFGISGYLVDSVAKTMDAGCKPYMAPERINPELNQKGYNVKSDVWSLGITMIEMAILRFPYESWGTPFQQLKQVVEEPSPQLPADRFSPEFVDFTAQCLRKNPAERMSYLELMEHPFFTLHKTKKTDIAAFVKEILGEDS
# Sequence of Maternal embryonic leucine zipper kinase (Q14680 whole entry, looked up): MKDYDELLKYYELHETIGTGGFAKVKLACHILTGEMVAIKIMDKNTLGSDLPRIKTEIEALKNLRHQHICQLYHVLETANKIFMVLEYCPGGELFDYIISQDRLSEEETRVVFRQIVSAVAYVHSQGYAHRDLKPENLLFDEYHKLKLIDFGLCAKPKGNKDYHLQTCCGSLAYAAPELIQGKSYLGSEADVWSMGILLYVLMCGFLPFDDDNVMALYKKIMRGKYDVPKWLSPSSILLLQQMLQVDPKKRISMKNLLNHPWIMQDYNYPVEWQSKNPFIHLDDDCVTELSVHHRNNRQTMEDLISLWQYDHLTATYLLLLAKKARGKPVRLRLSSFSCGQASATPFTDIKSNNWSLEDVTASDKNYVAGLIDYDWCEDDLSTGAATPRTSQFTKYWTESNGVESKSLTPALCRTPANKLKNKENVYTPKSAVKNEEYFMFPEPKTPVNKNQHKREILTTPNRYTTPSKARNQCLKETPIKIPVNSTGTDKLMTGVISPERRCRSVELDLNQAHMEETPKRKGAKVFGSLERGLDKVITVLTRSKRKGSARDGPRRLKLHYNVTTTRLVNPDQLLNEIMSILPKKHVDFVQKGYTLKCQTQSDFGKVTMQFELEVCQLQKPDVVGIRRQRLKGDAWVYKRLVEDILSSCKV
compound,measurement,setting,value
Cc1c(-c2cc(Nc3cc4n(n3)CCN(C)C4)c(=O)[nH]n2)ccc(F)c1NC(=O)c1cc2ccccc2s1,EC50,Blood,0.257 µM
same,EC50,Monocyte,0.022 µM
same,clearance,Mus musculus,43 mL/min/kg
same,clearance,Canis familiaris,14 mL/min/kg
same,inhibition,[1],50%
same,inhibition,[2],39.3%
same,inhibition,[3],38.3%
same,inhibition,[4],6%
same,inhibition,[5],5.8%
same,inhibition,[6],5.8%
same,inhibition,[7],5.5%
same,inhibition,[8],1.8%
same,inhibition,[9],1.5%
same,inhibition,[10],-2.8%
same,inhibition,[11],-3.1%
same,inhibition,[12],-3.5%
same,inhibition,[13],-3.6%
same,inhibition,[14],2.7%
same,inhibition,[15],2.7%
same,inhibition,[16],2.4%
same,inhibition,[17],-0.2%
same,inhibition,[18],-0.8%
same,inhibition,[19],-1.1%
same,inhibition,[20],-2.1%
same,inhibition,[21],-2.2%
same,inhibition,[22],14.9%
same,inhibition,[23],13.8%
same,inhibition,[24],13%
same,inhibition,[25],8.7%
same,inhibition,[26],8.6%
same,inhibition,[27],8%
same,inhibition,[28],7.4%
same,inhibition,[29],7.2%
same,inhibition,[30],7%
same,inhibition,[31],6.8%
same,inhibition,[32],4.8%
same,inhibition,[33],4.6%
same,inhibition,[34],4.3%
same,inhibition,[35],3.8%
same,inhibition,[36],-4.1%
same,inhibition,[37],-4.8%
same,inhibition,[38],-5.4%
same,inhibition,[39],-6.5%
same,inhibition,[40],3.6%
same,inhibition,[41],3.4%
